Results published in patent publication US4487831A, “Process for the conversion of cellulose to glucose” (Research Corporation, priority 1982, dated 1984).
Where two headings read alike, the source gives them in different places.

What was measured:
[1] = system: purified cellobiase from Aspergillus terreus (ATCC 20514); assay: Km of purified cellobiase for cellobiose; format: biochemical; conditions: substrate cellobiose
Experimental: The activity on cellobiose was determined by two different methods. In the first method 0.4 ml of the substrate, 12.5 mM cellobiose in 0.0625M sodium citrate buffer (pH 4.8), was preheated to 50° C., then 0.1 ml of the preheated enzyme solution was added to the substrate and the tubes stoppered. Each sample was incubated for 1.5 minutes placed in a boiling water bath for 30 seconds and then immediately cooled in an ice bath. This reaction mixture was added to 5 ml of the glucose oxidase reagent from a glucose assay kit (Sigma Chemical Co.) and the amount of glucose produced from cellobiose hydrolysis was determined spectrophometrically.
In the second method the amount of glucose produced was measured on a high pressure liquid chromatograph. The cellobiose substrate consisted of 0.03M cellobiose in 0.075M sodium citrate buffer (pH 4.8). The substrate and enzyme solution was preheated to 50° C., then 0.25 ml of the enzyme solution was added to 0.5 ml of the substrate and incubated for 10 minutes. […]
Using cellobiose as the substrate, the purified cellobiase enzyme from Aspergillus terreus was capable of producing 215 micromoles of glucose from cellobiose per minute per milligram of enzyme protein. […] The specific activity of our purified cellobiase is expressed as 215 units per mg protein. […]

[2] = system: cellobiase from Aspergillus phoenicis; conditions: Table 3; substrate cellobiose; as reported in the literature; cited from earlier work
[3] = system: cellobiase from Trichoderma reesei; conditions: Table 3; substrate cellobiose; as reported in the literature; cited from earlier work
[4] = target: purified cellobiase from Aspergillus terreus (ATCC 20514); assay: Glucose inhibition of purified cellobiase, PNPG as substrate; format: biochemical
Experimental: The β-glucosidase activity was routinely determined using p-nitrophenyl-β-D-glucoside (PNPG) as the substrate. Two milliliters of a 10 mM PNPG solution in 0.05M sodium citrate buffer solution (pH 4.8) were heated to 50° C. Then […] of the enzyme solution was added to the substrate and incubated for 15 minutes. After incubation, 3 ml of 1.0M aqueous sodium carbonate solution were added to stop the reaction and develop the color. The absorbance was read at 400 nm and the amount of p-nitrophenol liberated was determined from a standard curve. The time of incubation varied depending on the activity of the enzyme preparation tested. A unit (IU) of activity was defined as the amount of enzyme required to liberate one micromole of p-nitrophenol per minute from the substrate.
Glucose is a competitive inhibitor of the cellobiase enzyme from Aspergillus terreus. […] The Ki is the concentration of inhibitor required to slow the reaction down to one-half its maximum velocity, therefore, the larger the Ki the less inhibitory the inhibitor is.

[5] = target: T1, cellobiase from Alcaligenes faecalis (Agrobacterium sp., UniProt P12614); conditions: read-out: Ki (molar); Table 4; inhibitor glucose; type of inhibition competitive; reference (1) Ivanova et al 1980; cited from earlier work
T1 sequence (P12614 1-459): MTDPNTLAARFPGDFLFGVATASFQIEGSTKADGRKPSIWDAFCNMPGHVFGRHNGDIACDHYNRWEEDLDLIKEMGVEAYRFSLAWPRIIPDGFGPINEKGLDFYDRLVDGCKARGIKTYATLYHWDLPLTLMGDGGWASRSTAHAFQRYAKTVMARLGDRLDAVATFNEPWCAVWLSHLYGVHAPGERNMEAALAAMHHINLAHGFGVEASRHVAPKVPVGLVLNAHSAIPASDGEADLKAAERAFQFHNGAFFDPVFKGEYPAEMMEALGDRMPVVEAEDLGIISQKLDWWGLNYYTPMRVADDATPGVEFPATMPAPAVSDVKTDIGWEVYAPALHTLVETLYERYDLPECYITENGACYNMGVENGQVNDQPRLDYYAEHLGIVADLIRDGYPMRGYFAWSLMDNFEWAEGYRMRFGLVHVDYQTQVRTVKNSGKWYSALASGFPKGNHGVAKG

[6] = target: cellobiase from Lenzites trabes; conditions: Table 4; inhibitor glucose; type of inhibition noncompetitive; reference (2) Herr et al 1978; cited from earlier work
[7] = target: cellobiase from Phanerochaete chrysosporium; conditions: Table 4; inhibitor glucose; type of inhibition competitive; reference (3) Smith and Gold 1979; cited from earlier work

Km ([1]; Table 3, read-out: Km)	Km ([1]; purified enzyme, pH 4.8, 50° C., read-out: affinity (Km) for cellobiose)	Structure (SMILES)	Km [2]	Km [3]	Ki ([4]; Table 4, inhibitor glucose, type of inhibition competitive, read-out: Ki)	Ki ([4]; competitive inhibitor, p-nitrophenyl-β-D-glucoside as substrate, read-out: Ki dissociation constant for glucose)	Ki [5]	Ki [6]	Ki [7]
400 µM	400 µM	OC[C@H]1O[C@@H](O[C@H]2[C@H](O)[C@@H](O)C(O)O[C@@H]2CO)[C@H](O)[C@@H](O)[C@@H]1O (stereo partly drawn) [cellobiose]	750 µM	3300 µM	–	–	–	–	–
–	–	OC[C@H]1OC(O)[C@H](O)[C@@H](O)[C@@H]1O (stereo partly drawn) [glucose]	–	–	3.5 mM	3.5 mM	3 mM	2.7 mM	0.5 mM
